# Experimental data as given in patent US20250136619A1, “HETEROBIFUNCTIONAL COMPOUNDS AND THEIR USE IN TREATING DISEASE” (HALDA THERAPEUTICS OPCO, INC., priority 2021, published 2025).
# Like-named read-outs stand apart in the source and are kept apart here.
# What was measured:
# [1] = tested on: HEK293 cells; test: Cellular growth inhibition assay (CellTiter-Glo), HEK293 cells; type: cell-based; conditions: HEK293 cells, three days of compound treatment, CellTiter-Glo 2.0, read-out: CTG HEK293 GI50
# Method: (§1) HEK293 and HeLa cells were cultured in DMEM medium supplemented with 10% fetal bovine serum and 1% Penn/Strep. Cells were seeded in white 384-well plates at 500 cells/well in […] complete medium. Following seeding, plates were spun at 300×g for three minutes and cultured at 37° C. with 5% CO2 in a humidified tissue culture incubator.
# (§2) After 24 hours, compounds were titrated in 100% DMSO and diluted in complete cell culture medium. […] of compound/media mixture was added to cells to bring total volume in well to […]. DMSO alone was used as a negative control. Plates were then spun at 300×g for three minutes and stored at 37° C. with 5% CO2 for three days.
# (§3) On Day 0 and Day 3 of compound treatment, cell viability was quantified with CellTiter-Glo 2.0 reagent (Promega). After equilibrating microplates at room temperature for 30 minutes, 25 μL CellTiter-Glo 2.0 reagent was dispensed into each well to bring total volume to […]. Plates were mixed on shaker for 2 minutes at 500 rpm, followed by a 10-minute incubation at room temperature. Following a quick spin, luminescence readings were measured with an En Vision Plate Reader. Data was normalized to DMSO treated Day 0 and Day 3 readings. A four-parameter non-linear regression curve fit was applied to dose-response data in GraphPad Prism data analysis software to determine the half maximal growth inhibitory concentration (GI50) for each compound.
# [2] = tested on: HeLa cells; test: Cellular growth inhibition assay (CellTiter-Glo), HeLa cells; type: cell-based; conditions: HeLa cells, three days of compound treatment, CellTiter-Glo 2.0, read-out: CTG HELA GI50
# Method: as §1, §2, §3
Structure (SMILES),GI50 [2],"GI50 ([2]; Homo sapiens, 72 h)",GI50 [1],"GI50 ([1]; Homo sapiens, 72 h)"
"CCc1cnn2c(NCc3ccc(OCCCCCOc4nc(C#N)ccc4N[C@@H](C)c4cc5cc(Cl)ccc5[nH]c4=O)nc3)cc(N3CCCC[C@H]3CCO)nc12 [Compound I-90, 5-[[(1S)-1-(6-chloro-2-oxo-1H-quinolin-3-yl)ethyl]amino]-6-[5-[5-[[[3-ethyl-5-[(2S)-2-(2-hydroxyethyl)-1-piperidyl]pyrazolo[1,5-a]pyrimidin-7-yl]aminomethyl]-2-pyridyl]oxy]pentoxy]pyridine-2-carbonitrile]",< 500 nM,–,< 500 nM,–
"CC(C)(C)c1[nH]cnc1/C=c1\[nH]c(=O)/c(=C/c2ccccc2)n(CCOCCOCCOCCOCC(=O)N2CC(=O)N(c3cc(C#N)ccn3)[C@H](C(=O)N(c3cc(F)cc(F)c3)[C@H](C(=O)NC3CC(F)(F)C3)c3ccccc3Cl)C2)c1=O [Compound I-110, (2S)-4-[2-[2-[2-[2-[2-[(2Z,5Z)-2-benzylidene-5-[(5-tert-butyl-1 H-imidazol-4-yl)methylene]-3,6-dioxo-piperazin-1-yl]ethoxy]ethoxy]ethoxy]ethoxy]acetyl]-N-[(1S)-1-(2-chlorophenyl)-2-[(3,3-difluorocyclobutyl)amino]-2-oxo-ethyl]-1-(4-cyano-2-pyridyl)-N-(3,5-difluorophenyl)-6-oxo-piperazine-2-carboxamide]",–,> 5000 nM,–,> 5000 nM
CCc1cnn2c(NCc3ccc(=O)n(CCOCCOCCOCCOCCCc4cc(-c5cnc([C@H](C)Nc6nccc(N7C(=O)OC[C@@H]7[C@H](C)F)n6)cc5C)cc(C(F)(F)F)n4)c3)cc(N3CCCC[C@H]3CCO)nc12 [Compound I-103],500 to 1500 nM,–,500 to 1500 nM,–
CCc1cnn2c(NCc3ccc(OCCCCCn4c(C#N)ccc(N[C@@H](C)c5cc6cc(Cl)ccc6[nH]c5=O)c4=O)nc3)cc(N3CCCC[C@H]3CCO)nc12 [Compound I-89],< 500 nM,–,1500 to 5000 nM,–
"CCNC(=O)C[C@@H]1N=C(c2ccc(OCCOCCOCC(=O)N3CC(=O)N(c4cc(C#N)ccn4)[C@H](C(=O)N(c4cc(F)cc(F)c4)[C@H](C(=O)NC4CC(F)(F)C4)c4ccccc4Cl)C3)cc2)c2c(sc(C)c2C)-n2c(C)nnc21 [Compound I-105, (2S)—N-[(1S)-1-(2-chlorophenyl)-2-[(3,3-difluorocyclobutyl)amino]-2-oxo-ethyl]-1-(4-cyano-2-pyridyl)-N-(3,5-difluorophenyl)-4-[2-[2-[2-[4-[(9S)-9-[2-(ethylamino)-2-oxo-ethyl]-4,5,13-trimethyl-3-thia-1,8,11,12-tetrazatricyclo[8.3.0.0^2,6]trideca-2 (6),4,7,10,12-pentaen-7-yl]phenoxy]ethoxy]ethoxy]acetyl]-6-oxo-piperazine-2-carboxamide]",–,> 5000 nM,–,> 5000 nM
CCc1cnn2c(NCc3ccc(OCCCc4cc(-c5cnc([C@H](C)Nc6nccc(N7C(=O)OC[C@@H]7[C@H](C)F)n6)cc5C)cc(C(F)(F)F)n4)nc3)cc(N3CCCC[C@H]3CCO)nc12 [Compound I-101],< 500 nM,–,< 500 nM,–
CCc1cnn2c(NCc3ccc(OCCOCCOCCCCCn4c(C#N)ccc(N[C@@H](C)c5cc6cc(Cl)ccc6[nH]c5=O)c4=O)nc3)cc(N3CCCC[C@H]3CCO)nc12 [Compound I-91],< 500 nM,–,< 500 nM,–
"CCS(=O)(=O)Nc1ccc(Oc2cccc(OCCOCCOCCOCCOCC(=O)N3CC(=O)N(c4cc(C#N)ccn4)[C@H](C(=O)N(c4cc(F)cc(F)c4)C(C(=O)NC4CC(F)(F)C4)c4ccccc4Cl)C3)c2)c(-c2cn(C)c(=O)c3[nH]ccc23)c1 (stereo partly drawn) [Compound I-108, (2S)—N-[1-(2-chlorophenyl)-2-[(3,3-difluorocyclobutyl)amino]-2-oxo-ethyl]-1-(4-cyano-2-pyridyl)-N-(3,5-difluorophenyl)-4-[2-[2-[2-[2-[2-[3-[4-(ethylsulfonylamino)-2-(6-methyl-7-oxo-1 H-pyrrolo[2,3-c]pyridin-4-yl)phenoxy]phenoxy]ethoxy]ethoxy]ethoxy]ethoxy]acetyl]-6-oxo-piperazine-2-carboxamide]",–,< 500 nM,–,> 5000 nM
"CN(CCOCCOCCNS(=O)(=O)c1cc(F)cc(N(C(=O)[C@@H]2CCC(=O)N2c2cc(C#N)ccn2)C(C(=O)NC2CC(F)(F)C2)c2ccccc2Cl)c1)C(=O)N1N=C(c2cc(F)ccc2F)SC1(CCCN)c1ccccc1 (stereo partly drawn) [Compound I-114, 2-(3-aminopropyl)-N-[2-[2-[2-[[3-[[1-(2-chlorophenyl)-2-[(3,3-difluorocyclobutyl)amino]-2-oxo-ethyl]-[(2S)-1-(4-cyano-2-pyridyl)-5-oxo-pyrrolidine-2-carbonyl]amino]-5-fluoro-phenyl]sulfonylamino]ethoxy]ethoxy]ethyl]-5-(2,5-difluorophenyl)-N-methyl-2-phenyl-1,3,4-thiadiazole-3-carboxamide]",–,1500 to 5000 nM,–,> 5000 nM
CCc1cnn2c(NCc3ccc(OCCOCCOCCOCCOCCCc4cc(-c5cnc([C@H](C)Nc6nccc(N7C(=O)OC[C@@H]7[C@H](C)F)n6)cc5C)cc(C(F)(F)F)n4)nc3)cc(N3CCCC[C@H]3CCO)nc12 [Compound I-102],< 500 nM,–,< 500 nM,–
"CCS(=O)(=O)Nc1ccc(Oc2cccc(OCCOCCOCC(=O)N3CC(=O)N(c4cc(C#N)ccn4)[C@H](C(=O)N(c4cc(F)cc(F)c4)[C@H](C(=O)NC4CC(F)(F)C4)c4ccccc4Cl)C3)c2)c(-c2cn(C)c(=O)c3[nH]ccc23)c1 [Compound I-107, (2S)—N-[(1S)-1-(2-chlorophenyl)-2-[(3,3-difluorocyclobutyl)amino]-2-oxo-ethyl]-1-(4-cyano-2-pyridyl)-N-(3,5-difluorophenyl)-4-[2-[2-[2-[3-[4-(ethylsulfonylamino)-2-(6-methyl-7-oxo-1H-pyrrolo[2,3-c]pyridin-4-yl)phenoxy]phenoxy]ethoxy]ethoxy]acetyl]-6-oxo-piperazine-2-carboxamide]",–,500 to 1500 nM,–,> 5000 nM
CCc1cnn2c(NCc3ccc(OCCOCCOCCOCCOCCNS(=O)(=O)c4cc(F)cc(N(C(=O)[C@@H]5CCC(=O)N5c5cc(C#N)ccn5)C(C(=O)NC5CC(F)(F)C5)c5ccccc5Cl)c4)nc3)cc(N3CCCC[C@H]3CCO)nc12 (stereo partly drawn) [Compound I-94],500 to 1500 nM,–,1500 to 5000 nM,–
"CCNC(=O)C[C@@H]1N=C(c2ccc(OCCOCCOCCOCCOCCNS(=O)(=O)c3cc(F)cc(N(C(=O)[C@@H]4CCC(=O)N4c4cc(C#N)ccn4)C(C(=O)NC4CC(F)(F)C4)c4ccccc4Cl)c3)cc2)c2c(sc(C)c2C)-n2c(C)nnc21 (stereo partly drawn) [Compound I-104, (2S)—N-[1-(2-chlorophenyl)-2-[(3,3-difluorocyclobutyl)amino]-2-oxo-ethyl]-1-(4-cyano-2-pyridyl)-N-[3-[2-[2-[2-[2-[2-[4-[(9S)-9-[2-(ethylamino)-2-oxo-ethyl]-4,5, 13-trimethyl-3-thia-1,8,11,12-tetrazatricyclo[8.3.0.0^2,6]trideca-2 (6),4,7,10,12-pentaen-7-yl]phenoxy]ethoxy]ethoxy]ethoxy]ethoxy]ethylsulfamoyl]-5-fluoro-phenyl]-5-oxo-pyrrolidine-2-carboxamide]",–,> 5000 nM,–,> 5000 nM

# More lines, main results first:
GI50 [2],"GI50 ([2]; Homo sapiens, 72 h)",Structure (SMILES),GI50 [1],"GI50 ([1]; Homo sapiens, 72 h)"
–,< 500 nM,C=CC(=O)N1CCN([C@@H](CC2CC2)c2ccc([C@H](C)Nc3ncc4c(n3)N(CCOCCOCCOCCOCCn3cc(CNc5cc(N6CCCC[C@H]6CCO)nc6c(CC)cnn56)ccc3=O)C(=O)OC4)cc2)CC1 [Compound I-58],–,500 to 1500 nM
–,500 to 1500 nM,CCc1cnn2c(NCc3ccc(OCCOCCOCCOCCOCCOCCOCCOC/C=C/C(=O)N4CCC[C@@H](n5nc(-c6ccc(Oc7ccccc7)cc6)c6c(N)ncnc65)C4)nc3)cc(N3CCCC[C@H]3CCO)nc12 [Compound I-45],–,500 to 1500 nM
–,1500 to 5000 nM,"CN(C/C=C/C(=O)N1CCC[C@@H](n2nc(-c3ccc(Oc4ccccc4)cc3)c3c(N)ncnc32)C1)CCOCCOCCOCCOCCOCCOCCNS(=O)(=O)c1ccc(Nc2ncc(Br)c(Nc3cccc(F)c3C(N)=O)n2)cc1 [Compound I-65, 2-[[2-[4-[2-[2-[2-[2-[2-[2-[2-[[(E)-4-[(3R)-3-[4-amino-3-(4-phenoxyphenyl)pyrazolo[3,4-d]pyrimidin-1-yl]-1-piperidyl]-4-oxo-but-2-enyl]-methyl-amino]ethoxy]ethoxy]ethoxy]ethoxy]ethoxy]ethoxy]ethylsulfamoyl]anilino]-5-bromo-pyrimidin-4-yl]amino]-6-fluoro-benzamide]",–,> 5000 nM
–,500 to 1500 nM,C=CC(=O)N1CCN([C@@H](CC2CC2)c2ccc([C@H](C)Nc3ncc4c(n3)N(CCOCCOCCOCCOCCOCCOCCON(C)C(=O)N3N=C(c5cc(F)ccc5F)SC3(CCCN)c3ccccc3)C(=O)OC4)cc2)CC1 (stereo partly drawn) [Compound I-60],–,1500 to 5000 nM
–,< 500 nM,C=CC(=O)N1CCN([C@@H](CC2CC2)c2ccc([C@H](C)Nc3ncc4c(n3)N(CCOCCOCCOCCOCCOc3ccc(CNc5cc(N6CCCC[C@H]6CCO)nc6c(CC)cnn56)cn3)C(=O)OC4)cc2)CC1 [Compound I-57],–,< 500 nM
